Assay results taken from patent US8017313B2, “Human G protein-coupled receptor and modulators thereof for the treatment of cardiovascular disorders” (Arena Pharmaceuticals, Inc., priority 2003, dated 2011).

system: RUP40 transcript in neonatal rat ventricular myocytes (NRVMs); assay: RT-PCR of RUP40 transcript in neonatal rat ventricular myocytes; format: cell-based; settings: 24 hours following addition to media, FIG. 4
Protocol: Neonatal rat ventricular myocytes (NRVMs) were isolated and cultured as described previously [Adams, J W et al., J Biol Chem (1996) 271:1179-86]. Briefly, hearts were obtained from 1- to 2-day old Sprague-Dawley rat pups and digested with collagenase, and myocytes were purified by passage through a Percoll gradient. Cells were plated onto tissue culture dishes precoated with 1% gelatin and maintained overnight in 4:1 DMEM/medium-199 supplemented with 10% horse serum, 5% fetal calf serum, and antibiotics (100 units/ml penicillin and 100 μg/ml streptomycin. After 18 hours in plating medium, myocytes were washed with maintenance medium (DMEM/medium 199 plus antibiotics) to remove dead cells and debris and refreshed with maintenance medium for the duration of the experiment.
Total RNA isolated from NRVMs and fibroblasts as described above was used as a template for generation of reverse transcribed DNA (RT-DNA) using the RT for PCR kit (Becton Dickinson, Franldin, N.J.) according to manufacturer's instructions. RUP40 expression was detected in RT-DNA samples by PCR. PCR conditions were: 96° C. or 2 min; 30 cycles of 96° C. for 30 sec, 55° C. for 30 sec, 72° C. for 2 min; 72° C. for 10 min.
The amplified rat RUP40 DNA product is of size 403 base pairs. G3PDH amplifiers (Becton Dickinson, Franldin, N.J.) were added to each PCR reaction as an internal control.

Compound | RUP40 transcript levels in the myocytes
CNC[C@H](O)c1cccc(O)c1 [PE, phenylephrine] | remain elevated
prostaglandin F2 alpha [PG] | remain elevated
CCCCCCCCCCCCCC(=O)O[C@@H]1[C@@H](C)[C@@]2(O)[C@@H](C=C(CO)C[C@]3(O)C(=O)C(C)=C[C@@H]23)[C@@H]2C(C)(C)[C@]12OC(C)=O [PMA, phorbol 12-myristate 13-acetate] | drop dramatically
